No end group written: not given here.
Assays:
RPtag (large) [1] = test: Fluorescence anisotropy Kd of rhodamine labeled RPtag (small) peptides for RPtag (large); assay type: binding, Thermoanaerobacter tengcongensis
Procedure, shortened: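 N-terminally rhodamine-labeled RPtag small (50 nM or 1 nM) titrated with RPtag large in 50 mM Tris pH 8.0 with 0.005% Tween 20, 5 min to 1 h at room temperature; BSA served as non-specific binding control. Kd from fitting fluorescence anisotropy to a quadratic binding equation accounting for labeled peptide concentration.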

RPtag (large) [2] = test: Buffer additive screen, Kd by fluorescence anisotropy; assay type: binding, Thermoanaerobacter tengcongensis
Protocol: To determine reagent compatibility with the disclosed system, an additive screen was performed, wherein the Kd between RPtag (large) and 3 RPtag (small) peptides—native, Nd8Cd4, and Nd2p5ae18a—were tested in the presence of several common buffer additives (Table 3).

RPtag(large) = test: pH profile of Kd by fluorescence anisotropy; assay type: binding, Thermoanaerobacter tengcongensis; settings: buffers pH 1.5 to 13
Protocol: The Kds of Nd8,Cd4 for RPtag(large) was measured in the presence of buffers of different pHs ranging from 1.5 to 13.
For these experiments, Kds were measured by fluorescence anisotropy as described above in the following buffers, all at 100 mM with 0.005% Tween 20: glycine pH 1.5, glycine pH 2.0, glycine pH 3.0, acetate pH 4.5, 2-(N-morpholino)ethanesulfonic acid pH 6.0, tris pH 7.0, tris pH 7.5, tris pH 8.0, tris pH 8.5, borate pH 10.0, phosphate pH 11.5, phosphate pH 13.0.

[3] = test system: immobilized RPtag(large) column; test: Native elution from immobilized RPtag(large) column (3 M NaCl binding, 3 M imidazole elution); design: species or system Thermoanaerobacter tengcongensis; settings: bound in 100 mM Tris pH 8.0, 3 M NaCl, 0.005% Tween20
From the text: Because of the observed stabilizing character of NaCl and destabilizing character of imidazole on Nd8Cd4 binding, these reagents, among others, were incorporated into a novel buffering system for use with the disclosed proteins, peptides, systems, and methods. In particular, the effect of this novel buffer on binding of RPtag (small) Nd8Cd4 to an immobilized RPtag(large) column was studied. These experiments included eluting both (1) rhodamine labeled peptide and (2) N-terminally RPtag(small) Nd8Cd4 tagged with tagRFP from a column under native conditions. Generally, native conditions is taken to mean at or near biological conditions under which many proteins are folded, e.g. pH 4-9 at moderate temperature (4° C.-30° C.) in the absence of denaturants (e.g. guanidine hydrochloride, urea, SDS). This is in contrast to denaturing conditions, which generally rely on extreme pH (e.g. ≤2) denaturants, or high temperature to unfold proteins.
Briefly, columns, as described above, were first equilibrated with 10 mL 100 mM Tris pH 8.0, 3 M NaCl, 0.005% Tween20. Next, 1 mL of 10 uM rhodamine-tagged Nd8Cd4 or tagRFP containing an N-terminal RPtag (small) Nd8Cd4 tag was applied in the same buffer. The column was then washed with 10 mL of the same buffer. Finally, bound target molecules were eluted with 10 mL of 100 mM Tris pH 8.0, 3 M imidazole, 0.005% Tween20.

[4] = N-terminal rhodamine tagged peptide, unlabeled RPtag (large), 50 mM Tris pH 8.0, 0.005% Tween 20, mean ± SE
[5] = 100 mM Tris pH 8.0, 0.005% Tween 20, No Additive

Sequence | Kd (RPtag (large) [1]; [4]) | Kd (RPtag (large) [2]; [5]) | Kd (RPtag (large) [2]; BME (10%)) | Kd (RPtag (large) [2]; CaCl2 (3M)) | Kd (RPtag (large) [2]; DMSO (20%)) | Kd (RPtag (large) [2]; DTT (100 mM)) | Kd (RPtag (large) [2]; EtOH (20%)) | Kd (RPtag (large) [2]; Gdn-HCl (6M)) | Kd (RPtag (large) [2]; KCl (3M)) | Kd (RPtag (large) [2]; MeOH (20%)) | Kd (RPtag (large) [2]; MgCl2 (3M)) | Kd (RPtag (large) [2]; MnSO4 (10 mM)) | Kd (RPtag (large) [2]; NH4SO4 (3M)) | Kd (RPtag (large) [2]; NaCl (3M)) | Kd (RPtag (large) [2]; NiCl2 (100 mM)) | Kd (RPtag (large) [2]; PG (50%)) | Kd (RPtag (large) [2]; SDS (2%)) | Kd (RPtag (large) [2]; TritonX-100 (2%)) | Kd (RPtag (large) [2]; Tween20 (2%)) | Kd (RPtag (large) [2]; acetone (20%)) | also measured
KIANFIPAELKLITKANVQ [Nd2, p5a, e18a, KIANFIPAELKLITKANVQ] | 0.047 ± 0.018 nM | 0.037 nM | 6.7 nM | 150 nM | 0.023 nM | 0.073 nM | 0.1 nM | > 10000 nM | 0.011 nM | 0.056 nM | 350 nM | 22 nM | 44 nM | < 0.001 nM | 2.2 nM | 49 nM | > 10000 nM | 0.046 nM | 4.7 nM | 0.019 nM | Kd (RPtag (large) [1]): ~0.047 nM; Kd (RPtag (large) [2]; glycerol (20%)): < 0.001 nM; Kd (RPtag (large) [2]; imidazole (3M)): > 10000 nM; Kd (RPtag (large) [2]; ribose (3M)): < 0.001 nM; Kd (RPtag (large) [2]; sorbitol (3M)): < 0.001 nM; Kd (RPtag (large) [2]; urea (8M)): > 10000 nM; pH of relative maximum affinity (RPtag(large)): ~8 pH; elution behaviour with 100 mM Tris pH 8.0, 3 M imidazole [3]: diffuse band
PAELKLITK [Nd8, Cd4, PAELKLITK] | 14 ± 1 nM | 14 nM | 740 nM | > 10000 nM | 140 nM | 33 nM | 733 nM | > 10000 nM | 0.066 nM | 34 nM | 240 nM | 160 nM | 2.8 nM | 0.15 nM | 42 nM | 4600 nM | > 10000 nM | 180 nM | 45 nM | 22 nM | Kd (RPtag (large) [1]; N-terminal rhodamine tagged peptide, unlabeled RPtag (large), 50 mM Tris pH 8.0, 0.005% Tween 20, mean ± SE, listed as Nd8Cd4): ~14 nM; increased affinity with kosmotropic salts NaCl and KCl (RPtag (large) [2]; 3M salt versus no additive): > 100 fold; Kd (RPtag (large) [2]; glycerol (20%)): 27 nM; Kd (RPtag (large) [2]; imidazole (3M)): > 10000 nM; Kd (RPtag (large) [2]; ribose (3M)): 42 nM; Kd (RPtag (large) [2]; sorbitol (3M)): 16 nM; Kd (RPtag (large) [2]; urea (8M)): > 10000 nM; pH of relative maximum affinity (RPtag(large)): ~8 pH; elution behaviour with 100 mM Tris pH 8.0, 3 M imidazole [3]: eluted as a tight band

From patent US11414454B2, “Compositions, methods, and systems for affinity-based protein identification and purification” (Auctus Biologies, Inc., priority 2017, dated 2022)
